PubChem BioAssay AID1963436 (Molecular Pharmacology Branch, DTP, NCI, 2024)
Where “and” joins values, the source holds several entries; their conditions need not be identical. Equal entries are not always repeated.

Tested on: OVCAR-5 complex spheroid (HUVEC/MSC), viability % T/C
Test: Anticancer human tumor OVCAR-5 cell line growth inhibition [Asc];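 note: spheroids exposed to agents for 7 days before readout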;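 for viability, T/C: 100% = DMSO vehicle-treated wells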
Details: for viability, T/C: stronger effect = lower value; active = viability on the fitted dose curve at most 10% of control; inactive = the rest
How it was run: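 Complex solid-tumor spheroids incorporating human endothelial and mesenchymal stem cells received single agents or combinations over half-log dilution ranges anchored to clinical Cmax.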

[1] = curve of first compound, second compound 0.1 µM
[2] = curve of first compound, second compound 0.316 µM
[3] = curve of first compound, second compound 1 µM
[4] = curve of first compound, second compound 3.16 µM
[5] = curve of first compound, second compound 10 µM
[6] = second compound 0.1 µM, first compound 0.0316 µM
[7] = second compound 0.1 µM, first compound 0.1 µM
[8] = second compound 0.1 µM, first compound 0.316 µM
[9] = second compound 0.1 µM, first compound 1 µM
[10] = second compound 0.1 µM, first compound 3.16 µM
[11] = second compound 0.1 µM, first compound 10 µM
[12] = second compound 0.316 µM, first compound 0.0316 µM
[13] = second compound 0.316 µM, first compound 0.1 µM
[14] = second compound 0.316 µM, first compound 0.316 µM
[15] = second compound 0.316 µM, first compound 1 µM
[16] = second compound 0.316 µM, first compound 3.16 µM
[17] = second compound 0.316 µM, first compound 10 µM
[18] = second compound 1 µM, first compound 0.0316 µM
[19] = second compound 1 µM, first compound 0.1 µM
[20] = second compound 1 µM, first compound 0.316 µM
[21] = second compound 1 µM, first compound 1 µM
[22] = second compound 1 µM, first compound 3.16 µM
[23] = second compound 1 µM, first compound 10 µM
[24] = second compound 3.16 µM, first compound 0.0316 µM
[25] = second compound 3.16 µM, first compound 0.1 µM
[26] = second compound 3.16 µM, first compound 0.316 µM
[27] = second compound 3.16 µM, first compound 1 µM
[28] = second compound 3.16 µM, first compound 3.16 µM
[29] = second compound 3.16 µM, first compound 10 µM
[30] = second compound 10 µM, first compound 0.0316 µM
[31] = second compound 10 µM, first compound 0.1 µM
[32] = second compound 10 µM, first compound 0.316 µM
[33] = second compound 10 µM, first compound 1 µM
[34] = second compound 10 µM, first compound 3.16 µM
[35] = second compound 10 µM, first compound 10 µM

C=C(F)C(=O)N1CCN(c2nc(OCC3CCCN3C)nc3c2CCN(c2cccc4cccc(Cl)c24)C3)CC1CC#N (configuration not stated) + Cc1c(S(C)(=O)=O)c(-c2cc(F)cc(N3CCN(c4ccc(NS(=O)(=O)c5ccc(NC(CCN6CCC(C(=O)OCCCP(=O)(O)O)CC6)CSc6ccccc6)c(S(=O)(=O)C(F)(F)F)c5)cc4)CC3)c2)c(-c2ccc(Cl)cc2)n1C(C)C
active: viability, T/C [10] 1.2% | viability, T/C [11] 0.31% | viability, T/C [16] 1.91% | viability, T/C [17] 0.12% | viability, T/C [22] 0.65% | viability, T/C [23] 0.74% | viability, T/C [28] 0.82% | viability, T/C [29] 0.14% | viability, T/C [34] 0.46% | viability, T/C [35] 0.21%
799 nM: IC50 [1]
643 nM: IC50 [5]
inactive: viability, T/C [6] 88.7% | viability, T/C [7] 96.8% | viability, T/C [8] 79.9% | viability, T/C [9] 43.7% | viability, T/C [12] 93.5% | viability, T/C [13] 98% | viability, T/C [14] 78.3% | viability, T/C [15] 25.4% | viability, T/C [18] 81.5% | viability, T/C [19] 89% | viability, T/C [20] 83.3% | viability, T/C [21] 29.9% | viability, T/C [24] 90% | viability, T/C [25] 92.3% | viability, T/C [26] 80.1% | viability, T/C [27] 19.6% | viability, T/C [30] 111% | viability, T/C [31] 131% | viability, T/C [32] 106% | viability, T/C [33] 15.1%
649 nM: IC50 [3]
561 nM: IC50 [4]
587 nM: IC50 [2]

COc1c(OCCCN2CCOCC2)ccc2c3n(c(=NC(=O)c4cnc(N)nc4)nc12)CCN3 + CNC(C)C(=O)NC1CN(S(=O)(=O)c2cccc(S(=O)(=O)N3CCC4CCC(C(=O)NC(c5ccccc5)c5ccccc5)N4C(=O)C(NC(=O)C(C)NC)C3)c2)CCC2CCC(C(=O)NC(c3ccccc3)c3ccccc3)N2C1=O
22.4 nM: IC50 (curve of first compound, second compound 0.0316 µM)
18.7 nM: IC50 [2]
29.5 nM: IC50 (curve of first compound, second compound 0.01 µM)
active: viability, T/C (second compound 0.01 µM, first compound 1 µM) 8.86% | viability, T/C (second compound 0.0316 µM, first compound 1 µM) 7.75% | viability, T/C [9] 7.03% | viability, T/C [15] 6.27% | viability, T/C [21] 6.51%
19.5 nM: IC50 [1]
17.6 nM: IC50 [3]
inactive: viability, T/C (second compound 0.01 µM, first compound 0.00316 µM) 93.3% | viability, T/C (second compound 0.01 µM, first compound 0.01 µM) 67.4% | viability, T/C (second compound 0.01 µM, first compound 0.0316 µM) 48% | viability, T/C (second compound 0.01 µM, first compound 0.1 µM) 35% | viability, T/C (second compound 0.01 µM, first compound 0.316 µM) 17.1% | viability, T/C (second compound 0.0316 µM, first compound 0.00316 µM) 69.8% | viability, T/C (second compound 0.0316 µM, first compound 0.01 µM) 63.6% | viability, T/C (second compound 0.0316 µM, first compound 0.0316 µM) 42.5% | viability, T/C (second compound 0.0316 µM, first compound 0.1 µM) 30.2% | viability, T/C (second compound 0.0316 µM, first compound 0.316 µM) 17.6% | viability, T/C (second compound 0.1 µM, first compound 0.00316 µM) 68% | viability, T/C (second compound 0.1 µM, first compound 0.01 µM) 61.5% | viability, T/C [6] 41.5% | viability, T/C [7] 26.3% | viability, T/C [8] 15.9% | viability, T/C (second compound 0.316 µM, first compound 0.00316 µM) 67.1% | viability, T/C (second compound 0.316 µM, first compound 0.01 µM) 59.9% | viability, T/C [12] 41.7% | viability, T/C [13] 25.3% | viability, T/C [14] 13.1% | viability, T/C (second compound 1 µM, first compound 0.00316 µM) 82.9% | viability, T/C (second compound 1 µM, first compound 0.01 µM) 56.1% | viability, T/C [18] 42.1% | viability, T/C [19] 27.1% | viability, T/C [20] 12.3%

CNC(C)C(=O)NC1CN(S(=O)(=O)c2cccc(S(=O)(=O)N3CCC4CCC(C(=O)NC(c5ccccc5)c5ccccc5)N4C(=O)C(NC(=O)C(C)NC)C3)c2)CCC2CCC(C(=O)NC(c3ccccc3)c3ccccc3)N2C1=O (configuration not stated) + CCN1C(C(=O)NC23CCC(C(=O)O)(CC2)CC3)C(c2cccc(Cl)c2F)C2(C(=O)Nc3cc(Cl)ccc32)C12CCCCC2
> 1000 nM: IC50 (curve of first compound, second compound 0.03 µM) | IC50 (curve of first compound, second compound 0.0949 µM) | IC50 (curve of first compound, second compound 0.3 µM) | IC50 (curve of first compound, second compound 0.949 µM) | IC50 (curve of first compound, second compound 3 µM)
inactive: viability, T/C (second compound 0.03 µM, first compound 0.00316 µM) 97.3% | viability, T/C (second compound 0.03 µM, first compound 0.01 µM) 107% | viability, T/C (second compound 0.03 µM, first compound 0.0316 µM) 86.2% | viability, T/C (second compound 0.03 µM, first compound 0.1 µM) 84.7% | viability, T/C (second compound 0.03 µM, first compound 0.316 µM) 94.4% | viability, T/C (second compound 0.03 µM, first compound 1 µM) 75% | viability, T/C (second compound 0.0949 µM, first compound 0.00316 µM) 90.5% | viability, T/C (second compound 0.0949 µM, first compound 0.01 µM) 102% | viability, T/C (second compound 0.0949 µM, first compound 0.0316 µM) 80.7% | viability, T/C (second compound 0.0949 µM, first compound 0.1 µM) 77.1% | viability, T/C (second compound 0.0949 µM, first compound 0.316 µM) 78.8% | viability, T/C (second compound 0.0949 µM, first compound 1 µM) 78.3% | viability, T/C (second compound 0.3 µM, first compound 0.00316 µM) 102% | viability, T/C (second compound 0.3 µM, first compound 0.01 µM) 94% | viability, T/C (second compound 0.3 µM, first compound 0.0316 µM) 84.5% | viability, T/C (second compound 0.3 µM, first compound 0.1 µM) 74.7% | viability, T/C (second compound 0.3 µM, first compound 0.316 µM) 87.3% | viability, T/C (second compound 0.3 µM, first compound 1 µM) 95.3% | viability, T/C (second compound 0.949 µM, first compound 0.00316 µM) 109% | viability, T/C (second compound 0.949 µM, first compound 0.01 µM) 102% | viability, T/C (second compound 0.949 µM, first compound 0.0316 µM) 87.5% | viability, T/C (second compound 0.949 µM, first compound 0.1 µM) 70.2% | viability, T/C (second compound 0.949 µM, first compound 0.316 µM) 85.1% | viability, T/C (second compound 0.949 µM, first compound 1 µM) 95% | viability, T/C (second compound 3 µM, first compound 0.00316 µM) 102% | viability, T/C (second compound 3 µM, first compound 0.01 µM) 101% | viability, T/C (second compound 3 µM, first compound 0.0316 µM) 96.7% | viability, T/C (second compound 3 µM, first compound 0.1 µM) 79.9% | viability, T/C (second compound 3 µM, first compound 0.316 µM) 84.4% | viability, T/C (second compound 3 µM, first compound 1 µM) 90.8%

CCN1CCN(Cc2ccc(Nc3ncc(F)c(-c4cc(F)c5nc(C)n(C(C)C)c5c4)n3)nc2)CC1
inactive: viability, T/C (compound 0.00316 µM) 96.2% and 105% and 97.1% | viability, T/C (compound 0.01 µM) 89% and 87.6% and 79.2% | viability, T/C (compound 0.0316 µM) 70.1% and 70.8% and 77.2% | viability, T/C (compound 0.1 µM) 66.8% and 66.6% and 69.3% | viability, T/C (compound 0.316 µM) 71.2% and 64.5% and 68.4% | viability, T/C (compound 1 µM) 60.4% and 55.5% and 60.6%
> 1000 nM: IC50 (curve of compound)

C#Cc1c(F)ccc2cc(O)cc(-c3ncc4c(N5CC6CCC(C5)N6)nc(OCC56CCCN5CC(F)C6)nc4c3F)c12 (configuration not stated) + Cc1c(S(C)(=O)=O)c(-c2cc(F)cc(N3CCN(c4ccc(NS(=O)(=O)c5ccc(NC(CCN6CCC(C(=O)OCCCP(=O)(O)O)CC6)CSc6ccccc6)c(S(=O)(=O)C(F)(F)F)c5)cc4)CC3)c2)c(-c2ccc(Cl)cc2)n1C(C)C
2810 nM: IC50 [4]
4450 nM: IC50 [2]
5340 nM: IC50 [1]
3720 nM: IC50 [3]
3730 nM: IC50 [5]
inactive: viability, T/C [6] 96.7% | viability, T/C [7] 107% | viability, T/C [8] 102% | viability, T/C [9] 78.7% | viability, T/C [10] 69.3% | viability, T/C [11] 30.3% | viability, T/C [12] 91.8% | viability, T/C [13] 98.2% | viability, T/C [14] 87.2% | viability, T/C [15] 80.1% | viability, T/C [16] 61.1% | viability, T/C [17] 24.5% | viability, T/C [18] 89.7% | viability, T/C [19] 107% | viability, T/C [20] 90.1% | viability, T/C [21] 75.9% | viability, T/C [22] 56.3% | viability, T/C [23] 21.7% | viability, T/C [24] 84.9% | viability, T/C [25] 99.9% | viability, T/C [26] 96.1% | viability, T/C [27] 69% | viability, T/C [28] 49.8% | viability, T/C [29] 12.9% | viability, T/C [30] 133% | viability, T/C [31] 116% | viability, T/C [32] 118% | viability, T/C [33] 88.5% | viability, T/C [34] 56.6% | viability, T/C [35] 12.7%
